Experimental findings from US20070232577A1, “Synthetic pentacyclic triterpenoids and derivatives of betulinic acid and betulin” (Advanced Life Sciences, Inc., priority 2006, published 2007) are described below.

In data set [1] the test system is SK-MEL-2 (melanoma).
Protocol: (§2) Cells were plated, the evening before treatment, for each treatment on 96-well plates (1×10^4 cells/well) in 100 μL volume per well. Drug solutions were prepared by diluting each test compound in DSMO (10 mM) with the appropriate cell growth media for each individual cell line, or in “Universal Media” if several cell lines were to be assayed in parallel, immediately prior to cell treatment. Universal Media consisted of 5 mL sodium pyruvate (100×liquid stock, CellGro), 5 mL glucose (100×, 45% liquid stock, CellGro), 5 mL Penicillin/Streptomycin (100×liquid stock, CellGro), 10 mL sodium bicarbonate (50×liquid stock, CellGro), 25 mL Fetal Calf Serum, 1.25 mL insulin (4 mg/mL, Gibco) and 449 mL RPMI media with 2 mM glutamine for a total volume of 500 mL. Cells were treated by aspirating media from each well and adding 80 μL of each drug solution to the attached cells. All treatments were performed in triplicate. Growth media (80 μL) were added to 3 blank wells (no cells) to measure background from the growth media Growth media alone (no DMSO or test compond) was added to 2 wells containing cells to measure the baseline MTS activity and vehicle (DMSO) control solutions were also included to monitor basal toxicity from DMSO. Cells were incubated at 37° C. for 72 h. MTS reagent (per 96-well plate) were prepared by combining 2 mL of MTS working solution (Cell Titer AQueous Non-Radioactive Cell Proliferation Assay, Promega, cat#G1112), 100 μL of 0.92 mg/mL phenazine methosulfate/Dulbecco's PBS and 2.1 mL growth media. MTS reagent (40 μL) were added to each well and incubated at 37° C. for 1.5 to 4 h. Plates were gently shaken by hand until solution in each well appeared homogenous. Absorbances at 490 nm were measured on a plate reader at multiple time points following the addition of MTS reagent for each plate. Triplicate absorbance (490 nm) measurements were averaged following background (no cell) subtraction for each drug concentration. Percent Cell Viability was calculated for each drug concentration using the following equation: {[Absorbances(drug treated)]/[Absorbances(DMSO treated)]}×100%
(§3) Percent viability (y-axis) was plotted against drug concentration (x-axis) and the resulting graph was used to determine the 50% inhibitory concentration (IC50) for each drug.
A further data set relates to A-375 (melanoma). In words: MTS cell viability assay, A-375. Conditions: Homo sapiens, 72 h. The data set is classed as cell-based. As to the method: (§1) All treatments were performed in triplicate. […] Cells were incubated at 37° C. for 72 h.
Data set [2] has as its system OVCAR-3 (ovarian carcinoma). In words: MTS cell viability assay, OVCAR-3. The data set is classed as cell-based. Particulars: Homo sapiens, 72 h. As to the method:
as §1

For the next data set, the system named is HT-29 (colon carcinoma). Kind of data set: MTS cell viability assay, HT-29. The data set is classed as cell-based. Particulars: Homo sapiens, 72 h. As to the method: as §1
A further data set concerns MCF-7 (breast carcinoma). Kind of data set: MTS cell viability assay, MCF-7. The data set is classed as cell-based. Conditions: Homo sapiens, MCF7, 72 h. On the procedure: as §1
Data set [3] deals with SK-MEL-2, A-375, Daoy, LN-229, OVCAR-3, HT-29, MCF-7 cell lines. The data set is classed as cell-based. As to the method: as §1
In data set [4] the test system is Daoy (glioblastoma).
Protocol: as §2, §3
For data set [5], the system named is Daoy (glioblastoma). Kind of data set: MTS cell viability assay, Daoy. Particulars: Homo sapiens, Daoy, 72 h, read-out: IC50 Daoy.
Protocol: as §2, §3
In data set [6] the test system is SK-MEL-2 (melanoma). Kind of data set: MTS cell viability assay, SK-MEL-2. Conditions: Homo sapiens, SK-MEL-2, 72 h, read-out: IC50 SK-MEL-2.
Protocol: as §2, §3
The next data set deals with LN-229 (glioblastoma). In words: MTS cell viability assay, LN-229. The data set is classed as cell-based. Conditions: Homo sapiens, 72 h. As to the method:
as §1

In brackets after ≈: the same amount, converted by molar mass.

Regarding `C=C(C)[C@@H]1CC[C@]2(C(=O)O)CC[C@]3(C)[C@H](CC[C@@H]4[C@@]5(C)CC[C@H](OC(=O)/C=C/c6ccc(O)c(O)c6)C(C)(C)[C@@H]5CC[C@]43C)[C@@H]12` [Compound 25, (1R,3aS,5aR,5bR,7aR,9S,11aR,11bR,13aR, 13bR)-9-((E)-3-(3,4-dihydroxyphenyl)acryloyloxy)-5a,5b,8,8,11a-pentamethyl-1-(prop-1-en-2-yl)icosahydro-1H-cyclopenta[a]chrysene-3a-carboxylic acid], the “improvement in cytotoxicity relative to betulinic acid 1 in SK-MEL-2” value in the data set on SK-MEL-2 (melanoma) [1] is recorded as “greater than 5 fold”.
As for `C=C(C)[C@@H]1CC[C@]2(CNCCO)CC[C@]3(C)[C@H](CC[C@@H]4[C@@]5(C)CC[C@H](O)C(C)(C)[C@@H]5CC[C@]43C)[C@@H]12` [Compound 69, (1R,3aS,5aR,5bR,7aR,9S,11aR,11bR,13aR,13bR)-3a-((2-hydroxyethylamino)methyl)-5a,5b,8,8,11a-pentamethyl-1-(prop-1-en-2-yl)icosahydro-1H-cyclopenta[a]chrysen-9-ol], the IC50 in the data set with A-375 (melanoma) was 4 µg/mL (≈ 8.23 µM); in data set [2] it was below 10 µg/mL; in the data set with HT-29 (colon carcinoma), 2 µg/mL (≈ 4.12 µM); in the data set with MCF-7 (breast carcinoma) it was below 10 µg/mL; in the data set with Daoy (glioblastoma) [5], below 2 µg/mL; in the data set on SK-MEL-2 (melanoma) [6] it was 5 µg/mL (≈ 10.3 µM). Also, the “cytotoxic potency across the cell line panel (in words)” value in [3] is listed as “potent across the entire cell line panel”. Also, the “improvement in cytotoxicity relative to betulinic acid 1 in SK-MEL-2” value with SK-MEL-2 (melanoma) [1] is “greater than 5 fold”. Moreover, in the data set with Daoy (glioblastoma) [4], the “improvement in cytotoxicity relative to betulinic acid 1 in Daoy” value is “greater than 5 fold”.
As to `C=C(C)[C@@H]1CC[C@]2(CNCC(=O)OC)CC[C@]3(C)[C@H](CC[C@@H]4[C@@]5(C)CC[C@H](OC(C)=O)C(C)(C)[C@@H]5CC[C@]43C)[C@@H]12` [Compound 72, methyl 2-(((1R,3aS,5aR,5bR,7aR,9S,1iaR,11bR,13aR,13bR)-9-acetoxy-5a,5b,8,8,11a-pentamethyl-1-(prop-1-en-2-yl)icosahydro-1H-cyclopenta[a]chrysen-3a-yl)methylamino)acetate], the IC50 is 6 µg/mL (≈ 10.8 µM) in the data set on A-375 (melanoma); above 75 µg/mL in the data set with LN-229 (glioblastoma); 36 µg/mL (≈ 64.8 µM) in data set [2]; above 75 µg/mL with HT-29 (colon carcinoma); 75 µg/mL (≈ 135 µM) in the data set with MCF-7 (breast carcinoma); 6 µg/mL (≈ 10.8 µM) in the data set with Daoy (glioblastoma) [5]. In addition, the IC50 in the data set on SK-MEL-2 (melanoma) [6] was 6 µg/mL (≈ 10.8 µM). Also, the “improvement in cytotoxicity relative to betulinic acid 1 in SK-MEL-2” value in the data set with SK-MEL-2 (melanoma) [1] was “greater than 5 fold”. Further, the “improvement in cytotoxicity relative to betulinic acid 1 in Daoy” value in the data set on Daoy (glioblastoma) [4] was “greater than 5 fold”.
